Values of other authors in patent publication US12213953B2, “Extended release midodrine hydrochloride compositions and methods of use” (XENAMED CORP., priority 2017, dated 2025).
Counter-ions that a name gives are not always drawn.

What was measured:
[1] = high water solubility and high permeability
[2] = oral 10 mg immediate release tablet

Structure (SMILES): COc1ccc(OC)c(C(O)CNC(=O)CN)c1 (racemic) [midodrine HCl, (±)-2-amino-N-[2-(2,5-dimethoxyphenyl)-2-hydroxyethyl]acetamide monohydrochloride]
- BCS classification [1]: BCS Class I

Structure (SMILES): COc1ccc(OC)c(C(O)CN)c1 (centres unmarked) [desglymidodrine]
- effect of food on bioavailability of desglymidodrine (in vivo): not affected by food
- first peak blood concentration of desglymidodrine [2]: about 10 ng/mL

Structure (SMILES): COc1ccc(OC)c(C(O)CNC(=O)CN)c1 (centres unmarked) [midodrine]
- half-life of midodrine [2]: approximately 25 minutes
- time to peak plasma levels of midodrine [2]: about 30 minutes
